# According to patent US11684614B2, “Formulations of hydroxypyridonate actinide/lanthanide decorporation agents” (priority 2017, dated 2023):
# Values joined by “and” are separate entries in the source; they are usually repeats but may differ in a detail not shown here. Equal entries are not always repeated.
# Test: Repeated-treatment efficacy for removing an intravenous dose of 238Pu (excretion, tissue retention, clinical observations), female and male arms
# Format: in vivo, Swiss-Webster mice
# Conditions: for % Recovered Dose-Female Animals-Urine per Day-Day 11 Necropsy: animal group H
# Experimental: The objective of this study was to characterize the efficacy of 3,4,3-L1(1,2-HOPO) at enhancing elimination from an internal plutonium burden in female and male Swiss-Webster mice administered a soluble citrate complex of ^238Pu and treated multiple times, starting at 24 hours after the exposure. Efficacy was evaluated by comparing the tissue contents, urinary and fecal excretions of ^238Pu in treated animals versus untreated animals.
# The medical countermeasure 3,4,3-L1(1,2-HOPO) was administered parenterally (ip) or orally (po) via consecutive injections or gavages (six daily or twelve twice daily) starting at 24 hours post contamination at the following four selected doses: 30 μmol/kg ip, 150 μmol/kg po, 300 μmol/kg po, and 600 μmol/kg po (equivalent to respective approximate human doses range of […], using the accepted conversion system of mouse doses into human equivalent doses—HED—based on body surface area). Oral doses also included the permeability enhancer selected during formulation development work.
# • Challenge isotope: ^238Pu • Challenge dose: 25 nCi (i.e., approximately 0.8 μCi/kg) • Route of contamination: Intravenous (iv) tail-vein • Route of treatment: Intraperitoneal Injection (ip) or Oral (po) • Frequency of treatment: Multiple (once- or twice-daily for 6 days) doses, starting 24 hr postcontamination • Treatment dose calculation: Dose calculations (mg/kg or μmol/kg) for the decorporation agent were based on the individual body weight measured after contamination. • Study Duration: 11 days, in-life
# c. […] Test article and control dose formulations were prepared within 1 day of dose administration, by weighing out the appropriate amount of test article, dispersing in vehicle. For ip solutions, the test article was used alone, while for oral suspensions, a mixture of test article and excipient (90:10, w:w) was used. The pH was adjusted to 7.0-7.4 for ip administration and 5.0-5.5 for oral administration with sterile NaOH. Dose formulations were prepared at room temperature and filter-sterilized. • Storage: 2-8° C.; refrigerated; protected from light. • Characterization: The concentration of each test article formulation was verified by high-performance liquid chromatography-mass spectrometry. • Test Article Handling: Test, reference, and control article formulations were handled with the use of eye protection, gloves, and a protective laboratory coat. • Correct Dose Assurance: The test article was weighed with calibrated balances. The administration of each dose formulation was properly documented, and the amount administered to each animal recorded.
# e. Experimental Procedures (In-Life Evaluations and Euthanasia) • Contamination: Single administration by intravenous (iv) tail-vein injection (0.2 mL injection volume) under isoflurane anesthesia. Three standard 0.2 mL injections were performed into polyethylene bottles and pre-loaded with aliquots of concentrated nitric acid on each injection day. Six female and six male mice were culled for necropsy 1 hr post-contamination and were used as standards. A11 standards were processed and counted together with the final samples to allow verification of the contamination dose. • Dose Administration: Single administration by intraperitoneal injection (ip) or oral gavage (po) under isoflurane anesthesia. • Mortality/Morbidity: Assessed at least once daily. • Clinical Observations: Recorded once daily (4 hr post-dose on day of treatment), or more often as clinical signs warranted. […]
compound,measurement,setting,value
"O=C(NCCCN(CCCCN(CCCNC(=O)c1cccc(=O)n1O)C(=O)c1cccc(=O)n1O)C(=O)c1cccc(=O)n1O)c1cccc(=O)n1O [3,4,3-L1(1,2-HOPO)]",% Recovered Dose-Female Animals-Feces per Day-Day 7 Necropsy,"animal group B, day 1, female mice",9.41%
same,% Recovered Dose-Female Animals-Feces per Day-Day 7 Necropsy,"animal group B, day 2, female mice",8.35%
same,% Recovered Dose-Female Animals-Feces per Day-Day 7 Necropsy,"animal group B, day 3, female mice",2.59%
same,% Recovered Dose-Female Animals-Feces per Day-Day 7 Necropsy,"animal group B, day 4, female mice",1.99%
same,% Recovered Dose-Female Animals-Feces per Day-Day 7 Necropsy,"animal group B, day 5, female mice",2.39%
same,% Recovered Dose-Female Animals-Feces per Day-Day 7 Necropsy,"animal group B, day 6, female mice",2.12%
same,% Recovered Dose-Female Animals-Feces per Day-Day 7 Necropsy,"animal group B, day 7, female mice",1.74%
same,% Recovered Dose-Female Animals-Feces per Day-Day 7 Necropsy,"animal group C, day 1, female mice, listed as 3,4,3-LI(1,2-HOPO)",11.51% and 5.30% and 8.74% and 7.20%
same,% Recovered Dose-Female Animals-Feces per Day-Day 7 Necropsy,"animal group C, day 2, female mice, listed as 3,4,3-LI(1,2-HOPO)",13.77% and 8.33% and 12.44% and 14.41%
same,% Recovered Dose-Female Animals-Feces per Day-Day 7 Necropsy,"animal group C, day 3, female mice, listed as 3,4,3-LI(1,2-HOPO)",4.51% and 3.49% and 4.66% and 4.88%
same,% Recovered Dose-Female Animals-Feces per Day-Day 7 Necropsy,"animal group C, day 4, female mice, listed as 3,4,3-LI(1,2-HOPO)",3.35% and 3.00% and 3.74% and 4.08%
same,% Recovered Dose-Female Animals-Feces per Day-Day 7 Necropsy,"animal group C, day 5, female mice, listed as 3,4,3-LI(1,2-HOPO)",2.71% and 2.82% and 2.30% and 2.85%
same,% Recovered Dose-Female Animals-Feces per Day-Day 7 Necropsy,"animal group C, day 6, female mice, listed as 3,4,3-LI(1,2-HOPO)",2.52% and 2.18% and 2.39% and 3.01%
same,% Recovered Dose-Female Animals-Feces per Day-Day 7 Necropsy,"animal group C, day 7, female mice, listed as 3,4,3-LI(1,2-HOPO)",2.15% and 1.62% and 1.98% and 2.66%
same,% Recovered Dose-Female Animals-Feces per Day-Day 7 Necropsy,"animal group E, day 1, female mice, listed as 3,4,3-LI(1,2-HOPO)",6.10% and 10.77% and 13.26% and 10.08%
same,% Recovered Dose-Female Animals-Feces per Day-Day 7 Necropsy,"animal group E, day 2, female mice, listed as 3,4,3-LI(1,2-HOPO)",8.15% and 10.30% and 9.61% and 15.30%
same,% Recovered Dose-Female Animals-Feces per Day-Day 7 Necropsy,"animal group E, day 3, female mice, listed as 3,4,3-LI(1,2-HOPO)",2.89% and 5.25% and 5.53% and 2.67%
same,% Recovered Dose-Female Animals-Feces per Day-Day 7 Necropsy,"animal group E, day 4, female mice, listed as 3,4,3-LI(1,2-HOPO)",2.76% and 3.97% and 4.52% and 2.90%
same,% Recovered Dose-Female Animals-Feces per Day-Day 7 Necropsy,"animal group E, day 5, female mice, listed as 3,4,3-LI(1,2-HOPO)",1.35% and 1.95% and 2.80% and 2.17%
same,% Recovered Dose-Female Animals-Feces per Day-Day 7 Necropsy,"animal group E, day 6, female mice, listed as 3,4,3-LI(1,2-HOPO)",1.90% and 1.34% and 2.01% and 2.18%
same,% Recovered Dose-Female Animals-Feces per Day-Day 7 Necropsy,"animal group E, day 7, female mice, listed as 3,4,3-LI(1,2-HOPO)",2.23% and 1.29% and 1.91% and 2.16%
same,% Recovered Dose-Female Animals-Feces per Day-Day 7 Necropsy,"animal group F, day 1, female mice, listed as 3,4,3-LI(1,2-HOPO)",9.32% and 9.52% and 7.17% and 5.19%
same,% Recovered Dose-Female Animals-Feces per Day-Day 7 Necropsy,"animal group F, day 2, female mice, listed as 3,4,3-LI(1,2-HOPO)",8.03% and 12.87% and 9.08% and 6.87%
same,% Recovered Dose-Female Animals-Feces per Day-Day 7 Necropsy,"animal group F, day 3, female mice, listed as 3,4,3-LI(1,2-HOPO)",2.78% and 4.30% and 4.68% and 2.63%
same,% Recovered Dose-Female Animals-Feces per Day-Day 7 Necropsy,"animal group F, day 4, female mice, listed as 3,4,3-LI(1,2-HOPO)",2.68% and 3.98% and 3.14% and 2.89%
same,% Recovered Dose-Female Animals-Feces per Day-Day 7 Necropsy,"animal group F, day 5, female mice, listed as 3,4,3-LI(1,2-HOPO)",2.30% and 3.01% and 3.85% and 3.00%
same,% Recovered Dose-Female Animals-Feces per Day-Day 7 Necropsy,"animal group F, day 6, female mice, listed as 3,4,3-LI(1,2-HOPO)",2.40% and 2.04% and 2.26% and 1.91%
same,% Recovered Dose-Female Animals-Feces per Day-Day 7 Necropsy,"animal group F, day 7, female mice, listed as 3,4,3-LI(1,2-HOPO)",1.39% and 1.59% and 2.15% and 2.13%
same,% Recovered Dose-Female Animals-Urine per Day-Day 11 Necropsy,"day 1, female mice, listed as 3,4,3-LI(1,2-HOPO)",9.33% and 10.42% and 5.66% and 9.35% and 11.13% and 9.41% and 6.93% and 9.39%
same,% Recovered Dose-Female Animals-Urine per Day-Day 11 Necropsy,"day 2, female mice, listed as 3,4,3-LI(1,2-HOPO)",3.78% and 5.22% and 5.30% and 4.96% and 5.23% and 5.12% and 3.93% and 5.10%
same,% Recovered Dose-Female Animals-Urine per Day-Day 11 Necropsy,"day 3, female mice, listed as 3,4,3-LI(1,2-HOPO)",4.12% and 4.15% and 6.39% and 5.55% and 5.41% and 4.29% and 3.92% and 3.16%
same,% Recovered Dose-Female Animals-Urine per Day-Day 11 Necropsy,"day 4, female mice, listed as 3,4,3-LI(1,2-HOPO)",2.95% and 3.74% and 4.22% and 3.34% and 3.22% and 4.38% and 2.99% and 5.19%
same,% Recovered Dose-Female Animals-Urine per Day-Day 11 Necropsy,"day 5, female mice, listed as 3,4,3-LI(1,2-HOPO)",3.24% and 2.72% and 3.06% and 2.44% and 3.11% and 2.27% and 1.41% and 2.10%
same,% Recovered Dose-Female Animals-Urine per Day-Day 11 Necropsy,"day 6, female mice, listed as 3,4,3-LI(1,2-HOPO)",1.23% and 2.05% and 2.60% and 1.54% and 1.89% and 1.51% and 0.91% and 1.79%
same,% Recovered Dose-Female Animals-Urine per Day-Day 11 Necropsy,"day 7, female mice, listed as 3,4,3-LI(1,2-HOPO)",1.33% and 1.66% and 2.35% and 1.27% and 1.38% and 1.35% and 1.24% and 1.89%
